Consider five molecules from ChEMBL document CHEMBL1126167, “Synthesis and evaluation of photoaffinity probes directed at lanosterol 14-demethylase (P-45014DM)” (Bioorg Med Chem Lett, 1992).

Series [1] has as its target T1, Lanosterol 14-alpha demethylase (Homo sapiens, UniProt Q16850).
T1 sequence (Q16850 whole entry): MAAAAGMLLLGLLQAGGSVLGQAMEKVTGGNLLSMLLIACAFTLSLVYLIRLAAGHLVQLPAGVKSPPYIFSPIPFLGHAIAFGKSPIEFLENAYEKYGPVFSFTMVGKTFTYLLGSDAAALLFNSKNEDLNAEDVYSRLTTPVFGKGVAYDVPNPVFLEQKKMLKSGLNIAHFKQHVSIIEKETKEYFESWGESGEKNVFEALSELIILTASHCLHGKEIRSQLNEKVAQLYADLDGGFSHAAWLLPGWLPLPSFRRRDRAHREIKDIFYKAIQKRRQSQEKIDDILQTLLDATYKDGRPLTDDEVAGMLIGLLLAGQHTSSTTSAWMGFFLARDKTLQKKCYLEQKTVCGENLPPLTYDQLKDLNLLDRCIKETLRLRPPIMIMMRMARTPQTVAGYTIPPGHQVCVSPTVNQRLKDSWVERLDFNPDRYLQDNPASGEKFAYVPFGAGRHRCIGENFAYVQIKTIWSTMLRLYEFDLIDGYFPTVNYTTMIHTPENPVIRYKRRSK
Description: Binding affinity for cytochrome P450 14DM. Further details: species or system Saccharomyces cerevisiae.

Series [2] in a line: Specific activity was determined. The series is classed as functional. The settings on record: tested as the 3H-labelled form.
For the next series, the system named is P45014DM. The series is described as follows: Photolysis after effective incorporation into P45014DM at 313 nm in phosphate buffer. The format is ADME. Further details: dose or concentration left out as unconfirmed. The settings on record: compound incorporated into P45014DM.
The nature of series [3]: Photolysis at 264 nm in phosphate buffer. The series is classed as ADME. The arrangement: dose or concentration left out as unconfirmed.

The Kd is the free concentration of one partner at which half of the binding sites on the other are occupied at equilibrium, for simple one-to-one binding. Broadly, the half-life is the time needed for the level to fall by half in the phase considered.

In series [1], `[N-]=[N+]=Nc1ccc(C(=O)Cn2ccnc2)cc1` displayed an equilibrium dissociation constant (Kd) of 18 µM.

In the case of `[N-]=[N+]=Nc1ccc(Cn2ccnc2)cc1`, in series [1], the equilibrium dissociation constant (Kd) turned out to be 15 µM.

Molecule `[N-]=[N+]=Nc1ccc(-n2ccnc2)cc1` showed a dissociation constant (Kd) in series [1] of 25 µM.

With `[N-]=[N+]=Nc1ccc(C(O)Cn2ccnc2)cc1` (configuration not stated), in series [1], binding was put at a Kd of 1.4 µM. In series [2], the Activity amounted to 26.4 mCi/M.

Regarding `[3H]C(O)(Cn1ccnc1)c1ccc(N=[N+]=[N-])cc1` (configuration not stated), the half-life with P45014DM was 45 min; in series [3], 2.5 min.
